Assays:
Assay in all cases: relative viability (nuclei count vs DMSO), 5 days (fraction); higher = more cells survive
HCC-78 = test system: HCC-78
In short: (§1)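 Dosing by pin tool came one day after lung cancer cell lines were seeded in 1536-well plates, using either one drug or a fixed anchor-drug dose plus five library-drug doses (not always all listed) in √10 steps. After 5 days, nuclei were counted on 4× images. Relative viability is treated-well nuclei count divided by vehicle-well nuclei count, and values are medians of duplicate plates.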

NCI-H322M = test system: NCI-H322M
In short: as §1

SK-MES-1 = test system: SK-MES-1
In short: as §1

UMC-11 = test system: UMC-11
In short: as §1

LC-2-ad = test system: LC-2-ad
In short: as §1

ChaGo-K-1 = test system: ChaGo-K-1
In short: as §1

LCLC-97TM1 = test system: LCLC-97TM1
In short: as §1

NCI-H661 = test system: NCI-H661
In short: as §1

LK-2 = test system: LK-2
In short: as §1

NCI-H1944 = test system: NCI-H1944
In short: as §1

LXF-289 = test system: LXF-289
In short: as §1

BEN = test system: BEN
In short: as §1

HCC-15 = test system: HCC-15
In short: as §1

H3255 = test system: H3255
In short: as §1

NCI-H1666 = test system: NCI-H1666
In short: as §1

NCI-H2087 = test system: NCI-H2087
In short: as §1

LU99A = test system: LU99A
In short: as §1

NCI-H2342 = test system: NCI-H2342
In short: as §1

NCI-H650 = test system: NCI-H650
In short: as §1

PC-3 [JPC-3] = test system: PC-3 [JPC-3]
In short: as §1

NCI-H838 = test system: NCI-H838
In short: as §1

NCI-H1651 = test system: NCI-H1651
In short: as §1

NCI-H358 = test system: NCI-H358
In short: as §1

NCI-H596 = test system: NCI-H596
In short: as §1

Compound CC(C)Oc1cc(Nc2nc(N[C@@H](C)c3ccc(F)cn3)ncc2Cl)n[nH]1 [AZ23] + CC(=O)Nc1cccc(-n2c(=O)n(C3CC3)c(=O)c3c(Nc4ccc(I)cc4F)n(C)c(=O)c(C)c32)c1 [Trametinib] (partner 0.02 µM) has a relative viability (HCC-78; first compound 0.01 µM) of 0.494, a relative viability (HCC-78; first compound 0.03162 µM) of 0.669 and a relative viability (HCC-78; first compound 0.3162 µM) of 0.418. The relative viability (NCI-H322M; first compound 0.01 µM) was 0.454, the relative viability (NCI-H322M; first compound 0.03162 µM) was 0.481 and the relative viability (NCI-H322M; first compound 0.3162 µM) was 0.565. The relative viability (SK-MES-1; first compound 0.03162 µM) was 0.578, the relative viability (SK-MES-1; first compound 0.3162 µM) was 0.59 and the relative viability (UMC-11; first compound 0.01 µM) was 0.591. It also gave a relative viability (UMC-11; first compound 0.03162 µM) of 0.872, a relative viability (UMC-11; first compound 0.3162 µM) of 0.729 and a relative viability (LC-2-ad; first compound 0.01 µM) of 1.09. It also gave a relative viability (LC-2-ad; first compound 0.03162 µM) of 0.898, a relative viability (LC-2-ad; first compound 0.3162 µM) of 0.868 and a relative viability (ChaGo-K-1; first compound 0.01 µM) of 0.855. The relative viability (ChaGo-K-1; first compound 0.03162 µM) was 0.921, the relative viability (ChaGo-K-1; first compound 0.3162 µM) was 0.979 and the relative viability (LCLC-97TM1; first compound 0.01 µM) was 0.238. For the same compound, the relative viability (LCLC-97TM1; first compound 0.03162 µM) was 0.209, the relative viability (LCLC-97TM1; first compound 0.3162 µM) was 0.189 and the relative viability (NCI-H661; first compound 0.01 µM) was 0.611. The relative viability (NCI-H661; first compound 0.03162 µM) was 0.575, the relative viability (NCI-H661; first compound 0.3162 µM) was 0.547 and the relative viability (LK-2; first compound 0.01 µM) was 0.949. The relative viability (LK-2; first compound 0.03162 µM) was 0.916, the relative viability (LK-2; first compound 0.3162 µM) was 0.681 and the relative viability (NCI-H1944; first compound 0.01 µM) was 0.438. The relative viability (NCI-H1944; first compound 0.03162 µM) was 0.398, the relative viability (NCI-H1944; first compound 0.3162 µM) was 0.386 and the relative viability (LXF-289; first compound 0.01 µM) was 0.74. It also gave a relative viability (LXF-289; first compound 0.03162 µM) of 0.671, a relative viability (LXF-289; first compound 0.3162 µM) of 0.615 and a relative viability (BEN; first compound 0.01 µM) of 0.909. It also gave a relative viability (BEN; first compound 0.03162 µM) of 1.14, a relative viability (BEN; first compound 0.3162 µM) of 1.09 and a relative viability (HCC-15; first compound 0.01 µM) of 0.382. It also gave a relative viability (HCC-15; first compound 0.03162 µM) of 0.413, a relative viability (HCC-15; first compound 0.3162 µM) of 0.243 and a relative viability (H3255; first compound 0.01 µM) of 0.595. For the same compound, the relative viability (H3255; first compound 0.03162 µM) was 0.609, the relative viability (H3255; first compound 0.3162 µM) was 0.632 and the relative viability (NCI-H1666; first compound 0.01 µM) was 0.804. The relative viability (NCI-H1666; first compound 0.03162 µM) was 0.847, the relative viability (NCI-H1666; first compound 0.3162 µM) was 0.903 and the relative viability (NCI-H2087; first compound 0.01 µM) was 0.189. It also gave a relative viability (NCI-H2087; first compound 0.03162 µM) of 0.196, a relative viability (NCI-H2087; first compound 0.3162 µM) of 0.187 and a relative viability (LU99A; first compound 0.01 µM) of 0.519. It also gave a relative viability (LU99A; first compound 0.03162 µM) of 0.708, a relative viability (LU99A; first compound 0.3162 µM) of 0.536 and a relative viability (NCI-H2342; first compound 0.01 µM) of 0.752. It also gave a relative viability (NCI-H2342; first compound 0.03162 µM) of 0.828, a relative viability (NCI-H2342; first compound 0.3162 µM) of 0.72 and a relative viability (NCI-H650; first compound 0.01 µM) of 0.955. For the same compound, the relative viability (NCI-H650; first compound 0.03162 µM) was 0.99, the relative viability (NCI-H650; first compound 0.3162 µM) was 0.987 and the relative viability (PC-3 [JPC-3]; first compound 0.01 µM) was 0.612. For the same compound, the relative viability (PC-3 [JPC-3]; first compound 0.03162 µM) was 0.787, the relative viability (PC-3 [JPC-3]; first compound 0.3162 µM) was 0.735 and the relative viability (NCI-H838; first compound 0.01 µM) was 0.615. For the same compound, the relative viability (NCI-H838; first compound 0.03162 µM) was 0.561, the relative viability (NCI-H838; first compound 0.3162 µM) was 0.456 and the relative viability (NCI-H1651; first compound 0.01 µM) was 0.829. The relative viability (NCI-H1651; first compound 0.03162 µM) was 0.87, the relative viability (NCI-H1651; first compound 0.3162 µM) was 0.854 and the relative viability (NCI-H358; first compound 0.01 µM) was 0.116. It also gave a relative viability (NCI-H358; first compound 0.03162 µM) of 0.137, a relative viability (NCI-H358; first compound 0.3162 µM) of 0.124 and a relative viability (NCI-H596; first compound 0.01 µM) of 0.739. It also gave a relative viability (NCI-H596; first compound 0.03162 µM) of 0.779 and a relative viability (NCI-H596; first compound 0.3162 µM) of 0.783.
CC(C)Oc1cc(Nc2nc(N[C@@H](C)c3ccc(F)cn3)ncc2Cl)n[nH]1 [AZ23] + COc1cc2c(Oc3ccc(NC(=O)C4(C(=O)Nc5ccc(F)cc5)CC4)cc3F)ccnc2cc1OCCCN1CCOCC1 [Foretinib] (partner 0.25 µM) was tested, and the relative viability (HCC-78; first compound 0.01 µM) was 0.588, the relative viability (HCC-78; first compound 0.03162 µM) was 0.52 and the relative viability (HCC-78; first compound 0.3162 µM) was 0.547. The relative viability (NCI-H322M; first compound 0.03162 µM) was 0.96, the relative viability (NCI-H322M; first compound 0.3162 µM) was 1.04 and the relative viability (SK-MES-1; first compound 0.01 µM) was 0.761. The relative viability (SK-MES-1; first compound 0.03162 µM) was 1.05, the relative viability (SK-MES-1; first compound 0.3162 µM) was 0.977 and the relative viability (UMC-11; first compound 0.01 µM) was 1.08. It also gave a relative viability (UMC-11; first compound 0.03162 µM) of 1.15, a relative viability (UMC-11; first compound 0.3162 µM) of 0.951 and a relative viability (LC-2-ad; first compound 0.01 µM) of 1.07. The relative viability (LC-2-ad; first compound 0.03162 µM) was 0.993, the relative viability (LC-2-ad; first compound 0.3162 µM) was 1.02 and the relative viability (ChaGo-K-1; first compound 0.01 µM) was 1.17. The relative viability (ChaGo-K-1; first compound 0.03162 µM) was 0.906, the relative viability (ChaGo-K-1; first compound 0.3162 µM) was 0.95 and the relative viability (LCLC-97TM1; first compound 0.01 µM) was 0.922. The relative viability (LCLC-97TM1; first compound 0.03162 µM) was 0.928, the relative viability (LCLC-97TM1; first compound 0.3162 µM) was 1.01 and the relative viability (NCI-H661; first compound 0.01 µM) was 1.15. It also gave a relative viability (NCI-H661; first compound 0.03162 µM) of 1.06, a relative viability (NCI-H661; first compound 0.3162 µM) of 1 and a relative viability (LK-2; first compound 0.01 µM) of 1.15. The relative viability (LK-2; first compound 0.03162 µM) was 1.38, the relative viability (LK-2; first compound 0.3162 µM) was 0.706 and the relative viability (NCI-H1944; first compound 0.01 µM) was 0.811. The relative viability (NCI-H1944; first compound 0.03162 µM) was 0.954, the relative viability (NCI-H1944; first compound 0.3162 µM) was 0.864 and the relative viability (LXF-289; first compound 0.01 µM) was 1.14. It also gave a relative viability (LXF-289; first compound 0.03162 µM) of 0.977, a relative viability (LXF-289; first compound 0.3162 µM) of 0.949 and a relative viability (BEN; first compound 0.01 µM) of 0.625. For the same compound, the relative viability (BEN; first compound 0.03162 µM) was 0.807, the relative viability (BEN; first compound 0.3162 µM) was 0.772 and the relative viability (HCC-15; first compound 0.01 µM) was 1.16. The relative viability (HCC-15; first compound 0.03162 µM) was 1.09, the relative viability (HCC-15; first compound 0.3162 µM) was 1.05 and the relative viability (H3255; first compound 0.01 µM) was 0.881. For the same compound, the relative viability (H3255; first compound 0.03162 µM) was 0.764, the relative viability (H3255; first compound 0.3162 µM) was 0.915 and the relative viability (NCI-H1666; first compound 0.01 µM) was 0.992. It also gave a relative viability (NCI-H1666; first compound 0.03162 µM) of 1.05, a relative viability (NCI-H1666; first compound 0.3162 µM) of 0.918 and a relative viability (NCI-H2087; first compound 0.01 µM) of 1.49. It also gave a relative viability (NCI-H2087; first compound 0.03162 µM) of 1.09, a relative viability (NCI-H2087; first compound 0.3162 µM) of 1.02 and a relative viability (LU99A; first compound 0.01 µM) of 0.799. For the same compound, the relative viability (LU99A; first compound 0.03162 µM) was 0.846, the relative viability (LU99A; first compound 0.3162 µM) was 0.872 and the relative viability (NCI-H2342; first compound 0.01 µM) was 0.974. For the same compound, the relative viability (NCI-H2342; first compound 0.03162 µM) was 1.07, the relative viability (NCI-H2342; first compound 0.3162 µM) was 1.05 and the relative viability (NCI-H650; first compound 0.01 µM) was 0.988. It also gave a relative viability (NCI-H650; first compound 0.03162 µM) of 1.01, a relative viability (NCI-H650; first compound 0.3162 µM) of 1 and a relative viability (PC-3 [JPC-3]; first compound 0.01 µM) of 1.23. For the same compound, the relative viability (PC-3 [JPC-3]; first compound 0.03162 µM) was 1.14, the relative viability (PC-3 [JPC-3]; first compound 0.3162 µM) was 0.996 and the relative viability (NCI-H838; first compound 0.01 µM) was 1.24. It also gave a relative viability (NCI-H838; first compound 0.03162 µM) of 1.14, a relative viability (NCI-H838; first compound 0.3162 µM) of 0.994 and a relative viability (NCI-H1651; first compound 0.03162 µM) of 0.828. For the same compound, the relative viability (NCI-H1651; first compound 0.3162 µM) was 0.844, the relative viability (NCI-H358; first compound 0.01 µM) was 0.786 and the relative viability (NCI-H358; first compound 0.03162 µM) was 0.829. The relative viability (NCI-H358; first compound 0.3162 µM) was 0.727, the relative viability (NCI-H596; first compound 0.01 µM) was 0.89 and the relative viability (NCI-H596; first compound 0.03162 µM) was 0.877. It also gave a relative viability (NCI-H596; first compound 0.3162 µM) of 0.737.
